The values that follow come from patent publication US8012942B2, “Carba-nucleoside analogs for antiviral treatment” (Gilead Sciences, Inc., priority 2009, dated 2011).

SMILES strings stand for the structures. Like-named read-outs stand apart in the source and are kept apart here.

The test system of one experiment is Replicon cells. Kind of experiment: HCV EC50 determination, replicon luciferase assay. The class given is cell-based. Particulars: Hepatitis C virus, 72 h. The method, then: Replicon cells were seeded in 96-well plates at a density of 8×10^3 cells per well in 100 μL of culture medium, excluding Geneticin. Compound was serially diluted in 100% DMSO and then added to the cells at a 1:200 dilution, achieving a final concentration of 0.5% DMSO and a total volume of 200 μL. Plates were incubated at 37° C. for 3 days, after which culture medium was removed and cells were lysed in lysis buffer provided by Promega's luciferase assay system. Following the manufacturer's instruction, 100 μL of luciferase substrate was added to the lysed cells and luciferase activity was measured in a TopCount luminometer.

Another experiment concerns the target T1, HCV Δ21 NS5b polymerase (Hepatitis C virus genotype 1b, UniProt Q9WMX2).
T1 construct: 75 nM HCV Δ21 NS5b polymerase
Kind of experiment: HCV IC50 determination, NS5b polymerase assay. The class given is biochemical. The method, then:
Assay Protocol: Either wild type or S282T (Migliaccio, et al, J. Biol. Chem. 2003, 49164-49170; Klumpp, et al., J. Biol. Chem. 2006, 3793-3799) mutant polymerase enzyme was used in this assay. NS5b polymerase assay (40 μL) was assembled by adding 28 μL polymerase mixture (final concentration: 50 mM Tris-HCl at pH 7.5, 10 mM KCL, 5 mM MgCl2, 1 mM DTT, 10 mM EDTA, 4 ng/μL of RNA template, and 75 nM HCV Δ21 NS5b polymerase) to assay plates followed by 4 μL of compound dilution. The polymerase and compound were pre-incubated at 35° C. for 10 minute before the addition of 8 μL of nucleotide substrate mixture (33P-α-labeled competing nucleotide at KM and 0.5 mM of the remaining three nucleotides). The assay plates were covered and incubated at 35° C. for 90 min. Reactions were then filtered through 96-well DEAE-81 filter plates via vacuum. The filter plates were then washed under vacuum with multiple volumes of 0.125 M NaHPO4, water, and ethanol to remove unincorporated label. Plates were then counted on TopCount to assess the level of product synthesis over background controls. The IC50 value is determined using Prism fitting program.

[1] abbreviates: replicon cells, 3 days at 37° C., luciferase activity, read-out: EC50.

As for `C[C@@]1(O)[C@H](O)[C@@H](CO)O[C@H]1c1scc2c(N)ncnc12` [Compound 1], the EC50 (in general, the concentration needed to bring the measured effect to its halfway point) with Replicon cells (setting [1]) came out at 90 µM.

On to `CC(C)(C)C(=O)SCCOP(=O)(OCCSC(=O)C(C)(C)C)OC[C@H]1O[C@@H](c2scc3c(N)ncnc23)[C@](C)(O)[C@@H]1O` [Compound 2], for which the 50% effective concentration (EC50) with Replicon cells (setting [1]) was 6.1 µM.

Turning to `C[C@@]1(O)[C@H](O)[C@@H](COP(=O)(O)OP(=O)(O)OP(=O)(O)O)O[C@H]1c1scc2c(N)ncnc12` [Compound 4], inhibition on HCV Δ21 NS5b polymerase was half-maximal at 0.37 µM (IC50).

For the compound `CC(C)(C)C(=O)SCCOP(=O)(OCCSC(=O)C(C)(C)C)OC[C@H]1O[C@@H](c2scc3c(=O)[nH]c(N)nc23)[C@](C)(O)[C@@H]1O` [Compound 62], the EC50 in the experiment with Replicon cells (setting [1]) came to 24 µM.

As for `C[C@@]1(O)[C@H](O)[C@@H](COP(=O)(O)OP(=O)(O)OP(=O)(O)O)O[C@H]1c1scc2c(=O)[nH]c(N)nc12` [Compound 63], half-maximal inhibition against HCV Δ21 NS5b polymerase (IC50) required 0.27 µM.

In turn, `CCOC(=O)[C@H](C)NP(=O)(OC[C@H]1O[C@@H](c2scc3c(N)ncnc23)[C@](C)(O)[C@@H]1O)Oc1ccccc1` (stereo partly drawn) [Compound 64] yielded an EC50 in the experiment with Replicon cells of 2.9 µM.
